Results reported in BindingDB's records for doi:10.7270/Q2154FH8 (Burnham Center For Chemical Genomics, 2010).

Biological target: Intestinal-type alkaline phosphatase (Homo sapiens, UniProt P09923)
Experiment: human IAP inhibitors, dose response, biochemical, luminescent, uHTS hits, set 2 (AID 488793)

Sequence of Intestinal-type alkaline phosphatase (P09923 whole entry): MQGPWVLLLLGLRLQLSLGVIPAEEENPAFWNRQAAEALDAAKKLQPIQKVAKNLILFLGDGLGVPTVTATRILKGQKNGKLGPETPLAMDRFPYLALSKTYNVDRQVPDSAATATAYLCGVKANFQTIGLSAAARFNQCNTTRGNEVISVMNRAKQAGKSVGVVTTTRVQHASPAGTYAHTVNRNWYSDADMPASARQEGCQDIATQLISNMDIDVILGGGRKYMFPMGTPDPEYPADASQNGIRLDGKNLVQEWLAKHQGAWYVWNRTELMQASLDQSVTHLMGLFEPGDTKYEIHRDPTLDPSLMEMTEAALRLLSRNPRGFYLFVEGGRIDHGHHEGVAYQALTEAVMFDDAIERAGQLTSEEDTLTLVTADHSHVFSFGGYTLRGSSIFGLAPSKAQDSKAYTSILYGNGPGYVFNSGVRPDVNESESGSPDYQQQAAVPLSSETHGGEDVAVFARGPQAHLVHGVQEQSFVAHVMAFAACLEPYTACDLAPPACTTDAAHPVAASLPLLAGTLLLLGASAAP

Row | Structure (SMILES) | IC50 [µM]
1 | CC(N=Nc1ccccc1[N+](=O)[O-])c1ccc([N+](=O)[O-])cc1 (centres undefined) | 77.3
2 | CCOC1=CC(=Cc2c(C)[nH]oc2=O)C=C(Br)C1=O [4-[(Z)-(3-bromo-5-ethoxy-4-oxo-1-cyclohexa-2,5-dienylidene)methyl]-3-methyl-2H-isoxazol-5-one] | 35.8
3 | C=c1[nH]n(Cc2ccccc2)c(=O)c1=Cc1ccc(N(C)C)cc1 [(4Z)-4-[[4-(dimethylamino)phenyl]methylidene]-5-methyl-2-(phenylmethyl)-3-pyrazolone] | 39.4
4 | O=C(O)[C@H]1O[C@@H](Oc2c(-c3ccc(O)c(O)c3)oc3cc(O)cc(=O)c-3c2O)[C@H](O)[C@@H](O)[C@@H]1O [quercetin glucuronide] | 0.891
